Results from PMC10803289, “Transport and inhibition mechanism of the human SGLT2–MAP17 glucose transporter” (Nature Structural & Molecular Biology, 2023).
Where a chain is given by its changes, count along the chain named. “And” between values parts separate entries of the source, which are not always exact repeats. Equal values may be shown once. Read-outs that look alike come from different tables or passages of the source.

How the values were obtained:
SGLT1 and SGLT2 = details: in words; cited from earlier work
hSGLT2 F98A = molecular target: T1, hSGLT2 F98A (Homo sapiens, UniProt P31639, F98A); assay: α-MG uptake in HEK293 cells, F98A mutant; format: cell-based; design: expressed in transfected cells
T1 sequence (P31639 1-672 F98A): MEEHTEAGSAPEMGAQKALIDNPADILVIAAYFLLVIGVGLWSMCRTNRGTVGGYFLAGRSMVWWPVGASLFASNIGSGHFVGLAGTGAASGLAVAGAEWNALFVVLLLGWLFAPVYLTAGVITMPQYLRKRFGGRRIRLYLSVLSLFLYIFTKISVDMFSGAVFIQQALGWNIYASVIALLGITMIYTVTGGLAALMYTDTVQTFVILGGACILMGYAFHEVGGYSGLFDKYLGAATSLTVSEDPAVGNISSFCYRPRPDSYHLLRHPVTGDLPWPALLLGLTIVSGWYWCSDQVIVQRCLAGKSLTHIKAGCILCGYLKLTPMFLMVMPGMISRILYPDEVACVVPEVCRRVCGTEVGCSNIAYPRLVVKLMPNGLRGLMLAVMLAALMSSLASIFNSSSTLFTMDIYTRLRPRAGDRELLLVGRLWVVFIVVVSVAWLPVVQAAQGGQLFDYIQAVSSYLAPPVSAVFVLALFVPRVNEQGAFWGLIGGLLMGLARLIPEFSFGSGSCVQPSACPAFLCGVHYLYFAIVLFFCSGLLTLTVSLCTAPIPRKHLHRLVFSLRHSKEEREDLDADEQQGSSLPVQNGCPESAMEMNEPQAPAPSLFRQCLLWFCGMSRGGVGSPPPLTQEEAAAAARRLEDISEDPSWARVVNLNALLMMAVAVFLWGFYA
T1 sequence (Q13113 1-114 partner): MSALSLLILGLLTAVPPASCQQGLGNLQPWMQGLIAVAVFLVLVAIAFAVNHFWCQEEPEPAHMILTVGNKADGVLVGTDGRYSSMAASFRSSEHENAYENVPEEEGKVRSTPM
From the text: (§1) hSGLT2 complementary DNA and human MAP17 cDNA were synthesized and codon-optimized for expression in human cell lines. Both cDNAs were cloned into the pcDNA3.4 vector. The hSGLT2 sequence was fused with an N-terminal signal sequence from human trypsinogen 1, a His10 tag, and sfGFP, followed by a human rhinovirus 3C protease (HRV3C protease) recognition site. Point mutations were introduced into this construct using site-directed mutagenesis. These plasmids were utilized for all experimental procedures conducted in this study.
(§2) HEK293 cells (ECACC 85120602) were maintained in Dulbecco’s modified Eagle medium (Gibco) supplemented with 10% fetal bovine serum (Thermo Scientific), 2 mM L-glutamine, 100 U ml^−1 benzylpenicillin and 100 µg ml^−1 streptomycin at 37 °C in a humidified atmosphere (5% CO2 in air). HEK293 cells were seeded at 1.0 × 10^5 cells per well in poly-L-lysine coated 24-well plates. The cells in each well were transiently transfected with 0.25 µg hMAP17 plasmid and 0.50 µg hSGLT2 plasmid using Lipofectamine 2000 (Life Technologies) and cultured for 48 h. […] After preincubation, uptake was initiated by replacing the preincubation buffer with extracellular fluid buffer containing 500 μM α-MG in the absence or presence of inhibitors. Uptake was completed by removing the uptake buffer and washing with ice-cold buffer three times, followed by solubilization in 1 N NaOH at room temperature.
(§3) Cell lysates were deproteinized by adding acetonitrile containing candesartan as the internal standard. The α-MG concentration was quantified via liquid chromatography–tandem mass spectrometry (LC–MS/MS) using the internal standard method.
(§4) Cellular protein content was determined using a bicinchoninic acid protein assay kit (Thermo Fisher Scientific). The uptake of α-MG was expressed as the ratio of concentration in the cells (in pmol per mg protein) to concentration in the medium (in pmol μl^−1); this is known as the cell-to-medium ratio (in μl per mg protein).
(§5) In the inhibition study, the cell-to-medium ratio of cells transfected with the empty vector was used as the background. The specific α-MG uptake was calculated by subtracting this background from the total cell-to-medium ratio and normalized to the uptake achieved without the inhibitor. IC50 was calculated via nonlinear regression using GraphPad Prism 8.4.3.
(§6) The concentrations of the extract solution from the filter plate and of the cell lysate were quantified using a tandem mass spectrometry QTRAP6500 System (SCIEX) coupled with an ACQUITY UPLC system (Waters) using the internal standard method. Mobile phases A and B used 10 mM of ammonium bicarbonate and acetonitrile, respectively.

hSGLT2 S74A = molecular target: T2, hSGLT2 S74A (Homo sapiens, UniProt P31639, S74A); format: cell-based
T2 construct: expressed in transfected cells; host or cells: Expi293 cells, crude membrane fraction

hSGLT2 F453A = molecular target: T3, hSGLT2 F453A (Homo sapiens, UniProt P31639, F453A); assay: α-MG uptake in HEK293 cells, F453A mutant; format: cell-based; design: expressed in transfected cells
T3 sequence (P31639 1-672 F453A): T1 sequence (P31639 1-672 F98A) with A98F, F453A
T3 sequence (Q13113 1-114 partner): T1 sequence (Q13113 1-114 partner)
From the text: as §1, §2, §3, §4, §5, §6

T2 sequence (P31639 whole entry S74A, one chain of several): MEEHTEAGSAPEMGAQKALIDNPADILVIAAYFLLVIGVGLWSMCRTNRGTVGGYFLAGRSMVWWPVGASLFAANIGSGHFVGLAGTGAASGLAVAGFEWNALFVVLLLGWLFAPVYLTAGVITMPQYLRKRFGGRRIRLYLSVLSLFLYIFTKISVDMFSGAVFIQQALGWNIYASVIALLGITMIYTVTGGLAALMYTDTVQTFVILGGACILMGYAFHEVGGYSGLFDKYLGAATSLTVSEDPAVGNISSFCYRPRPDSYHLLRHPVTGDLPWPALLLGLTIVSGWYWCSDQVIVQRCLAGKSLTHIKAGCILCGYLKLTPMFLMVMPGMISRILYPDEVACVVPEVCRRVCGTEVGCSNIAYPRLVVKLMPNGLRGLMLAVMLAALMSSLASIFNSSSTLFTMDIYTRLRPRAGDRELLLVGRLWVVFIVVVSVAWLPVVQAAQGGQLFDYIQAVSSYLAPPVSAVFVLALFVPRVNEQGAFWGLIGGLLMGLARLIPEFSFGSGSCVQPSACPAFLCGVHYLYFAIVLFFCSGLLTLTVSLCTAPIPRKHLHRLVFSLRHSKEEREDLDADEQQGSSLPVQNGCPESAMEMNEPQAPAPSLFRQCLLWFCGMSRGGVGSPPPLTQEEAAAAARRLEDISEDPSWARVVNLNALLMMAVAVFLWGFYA

Cc1ccc([C@@H]2O[C@H](CO)[C@@H](O)[C@H](O)[C@H]2O)cc1Cc1ccc(-c2ccc(F)cc2)s1 [Canagliflozin]
subtype specificity of inhibition (SGLT1 vs SGLT2) (SGLT1 and SGLT2): SGLT2-specific inhibition

O=C(CCc1ccc(O)cc1)c1c(O)cc(O)cc1O[C@@H]1O[C@H](CO)[C@@H](O)[C@H](O)[C@H]1O [Phlorizin]
remaining activity at 0.3 µM (hSGLT2 F98A; HEK293, Phlorizin 300 nM, read-out: α-MG uptake (% of control)): 80.5% | α-MG uptake (% of control) (hSGLT2 F98A; Phlorizin 0.3 nM): 115.8 % of control and 94.2 % of control and 155.8 % of control | α-MG uptake (% of control) (hSGLT2 F98A; Phlorizin 3 nM): 76.0 % of control and 88.8 % of control and 126.1 % of control | α-MG uptake (% of control) (hSGLT2 F98A; Phlorizin 10 nM): 79.6 % of control and 104.3 % of control and 76.0 % of control | α-MG uptake (% of control) (hSGLT2 F98A; Phlorizin 30 nM): 103.1 % of control and 103.4 % of control and 128.4 % of control | α-MG uptake (% of control) (hSGLT2 F98A; Phlorizin 100 nM): 135.2 % of control and 89.8 % of control and 99.6 % of control | α-MG uptake (% of control) (hSGLT2 F98A; Phlorizin 300 nM): 69.6 % of control and 82.5 % of control | α-MG uptake (% of control) (hSGLT2 S74A; Phlorizin 0.3 nM): 98.3 % of control and 109.0 % of control and 132.4 % of control | α-MG uptake (% of control) (hSGLT2 S74A; Phlorizin 1 nM): 94.4 % of control and 116.6 % of control and 114.8 % of control | α-MG uptake (% of control) (hSGLT2 S74A; Phlorizin 3 nM): 99.5 % of control and 109.8 % of control | α-MG uptake (% of control) (hSGLT2 S74A; Phlorizin 10 nM): 92.0 % of control and 68.8 % of control | α-MG uptake (% of control) (hSGLT2 S74A; Phlorizin 30 nM): 76.5 % of control and 90.7 % of control | α-MG uptake (% of control) (hSGLT2 S74A; Phlorizin 100 nM): 51.6 % of control and 68.4 % of control | α-MG uptake (% of control) (hSGLT2 S74A; Phlorizin 300 nM): 32.7 % of control and 25.1 % of control | α-MG uptake (% of control) (hSGLT2 F453A; Phlorizin 0.3 nM): 102.6 % of control and 120.9 % of control and 125.2 % of control | α-MG uptake (% of control) (hSGLT2 F453A; Phlorizin 1 nM): 103.4 % of control and 113.9 % of control and 124.6 % of control | α-MG uptake (% of control) (hSGLT2 F453A; Phlorizin 3 nM): 96.6 % of control and 95.6 % of control and 68.3 % of control | α-MG uptake (% of control) (hSGLT2 F453A; Phlorizin 10 nM): 133.1 % of control and 118.1 % of control and 89.5 % of control | α-MG uptake (% of control) (hSGLT2 F453A; Phlorizin 30 nM): 123.6 % of control and 119.1 % of control and 101.2 % of control | α-MG uptake (% of control) (hSGLT2 F453A; Phlorizin 100 nM): 126.1 % of control and 70.5 % of control and 71.8 % of control

CO[C@H]1O[C@H](CO)[C@@H](O)[C@H](O)[C@H]1O [α-MG, α-methyl-D-glucopyranoside]
α-MG uptake (hSGLT2 F98A; Fig. 3h): 55.68 μL/mg-protein and 75.98 μL/mg-protein and 85.61 μL/mg-protein | α-MG uptake (hSGLT2 S74A; Fig. 3h): 27.75 μL/mg-protein and 30.77 μL/mg-protein and 34.71 μL/mg-protein | α-MG uptake (hSGLT2 F453A; Fig. 3h): 21.78 μL/mg-protein and 20.01 μL/mg-protein and 27.75 μL/mg-protein
